Measurements: PMC11467779, “New anti-ovarian cancer quinolone derivatives acting by modulating microRNA processing machinery” (RSC Medicinal Chemistry, 2024)

Key:
WT SK-Hep-1 cells = assay: Antiproliferative effect on WT SK-Hep-1 cells (CCK-8); assay type: cell-based, human; conditions: 48 hours
Method: HCCLM3 and SK-Hep-1 cells were seeded into 96-well plates at a density of 10 000 cells per well and allowed to adhere overnight. Subsequently, the cells were treated with the following substances: 0.1% DMSO as the negative control, various concentrations of the test compounds, and 125 μM enoxacin as the positive control. After 48 h of incubation, the original culture medium was removed, and the cells were washed twice with PBS. Then, 100 μL of DMEM culture medium containing 10% CCK-8 (Bimake, USA) was added to each well. The plates were incubated for 30 minutes at 37 °C. To determine the […], measurements were taken at a wavelength of 450 nm using a Varioskan from Thermo Fisher Scientific.

miR-21-5p biogenesis = assay: miR-21-5p luciferase reporter (psi-R21 / psi-CTRL) in HeLa cells; assay type: cell-based, human
Method: HeLa cells were transfected with 10 ng of psi-R21 or psi-CTRL using Lipofectamine™ 2000 (Thermo Fisher Scientific) and after 48 hours were treated with either enoxacin or 33 at 20 μM and 50 μM. After 6 hours Renilla luciferase (RLuc) and firefly luciferase (FLuc) activities were measured using the Dual-Luciferase® Reporter Assay System (Promega), following the manufacturer's instructions, and GloMax® Discover Microplate Reader (Promega).
The binding site for miR-21 was cloned into psiCHECK™-2 Vector (Promega), downstream the Renilla cDNA, by inverted PCR using the following oligonucleotides: 21MRE_FW […]; 21MRE_REV […]. The resulting construct was named psi-R21.

TRBP = molecular target: T1, TRBP (Homo sapiens, UniProt Q15633); assay: Surface plasmon resonance (SPR) assay on TRBP; assay type: binding; conditions: versus enoxacin
T1 sequence (Q15633 1-366): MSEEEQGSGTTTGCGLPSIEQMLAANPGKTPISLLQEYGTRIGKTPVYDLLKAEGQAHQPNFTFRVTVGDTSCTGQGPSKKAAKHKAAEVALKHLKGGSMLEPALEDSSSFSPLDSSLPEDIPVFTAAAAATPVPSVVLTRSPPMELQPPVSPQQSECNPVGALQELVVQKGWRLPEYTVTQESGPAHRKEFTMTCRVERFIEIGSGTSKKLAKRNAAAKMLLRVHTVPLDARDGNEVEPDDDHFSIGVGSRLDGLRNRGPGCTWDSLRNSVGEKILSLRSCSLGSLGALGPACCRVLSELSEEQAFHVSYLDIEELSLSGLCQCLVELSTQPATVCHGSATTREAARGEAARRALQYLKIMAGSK
Method: Following the manufacturer's instructions, the BIAcore Sensor Chip (CM5) underwent initial activation using a mixture of NHS and EDC. Subsequently, recombinant human TRBP proteins at a concentration of 20 μg mL^−1 (in 10 mM sodium acetate, pH 4.0) were injected over the CM5 chip. After reaching a coupling level of 12 000 RU, a 1 M ethanolamine hydrochloride was injected to block the chip, preventing nonspecific binding. All the compounds were diluted in HBS-EP buffer (10 mM HEPES, pH 7.4, 3 mM EDTA, 150 mM NaCl, and 0.005% surfactant P-20) with 1% DMSO. Samples were injected at a rate of 10 μL min^−1 for 120 seconds, followed by a dissociation phase of 90 seconds. After each cycle, a 50% DMSO solution was used to regenerate the chip surface and restore the sensorgram baseline. Binding analysis was performed using BIA evaluation version 3.2 software, determining the […] (KD).

[1] = system: shRNA to siRNA maturation (GAPDH mRNA); assay: RNAi enhancing activity (shRNA to siRNA maturation, GAPDH mRNA in HEK-293T_shGAPDH); assay type: cell-based, human; conditions: 50 μM, 48 hours
Method: HEK-293T_shSCR and HEK-293T_shGAPDH were treated with 50 μM of enoxacin and 33 for 48 hours before RNA extraction and expression analysis.
Lentiviral particles were produced by calcium phosphate transient transfection of HEK-293T cells with specific lentiviral plasmids (shGAPDH: TRCN0000445616 and shSCR: TRCN0000015937 from SIGMA-ALDRICH) together with the packaging plasmids (pLP1and pLP2) and the envelope plasmid pLP/VSVG. For each lentiviral plasmid one 150 mm plate of HEK293T cells was used for transfection. After 14–16 hours the medium was replaced with complete medium supplemented with 1 mM sodium butyrate (SIGMA-ALDRICH). The collection of medium containing lentiviral particles occurs 48 h and 72 h after transfection; complete medium supplemented with sodium butyrate was added after the first collection. […]
Total RNA was extracted using the Direct-zol RNA MiniPrep kit (Zymo Research) with on-column DNase treatment, according to the manufacturer's instructions. Reverse transcription was carried out with SuperScript VILO cDNA Synthesis Kit (Life Technologies) and the cDNA samples were analyzed by qRT-PCR using PowerUp SYBR Green Master Mix (Thermo Fisher Scientific). For miR-21 expression analysis total RNA was retrotranscribed using miRCURY® LNA® RT Kit (Qiagen) and the cDNA was analyzed by using miRCURY® LNA® miRNA PCR Assay (Qiagen). […]

Structure (SMILES): O=C(O)c1cn(C2CC2)c2cc(N3CCc4ccccc4C3)c(F)cc2c1=O [Compound 33, 1-Cyclopropyl-7-(3,4-dihydroisoquinolin-2(1H)-yl)-6-fluoro-4-oxo-1,4-dihydroquinoline-3-carboxylic acid]
- antiproliferative effect on WT TRBP SK-Hep-1 cells (WT SK-Hep-1 cells; 30 μM): less evident
- viability of WT SK-Hep-1 cells (WT SK-Hep-1 cells; 50 μM): significantly reduced the viability
- miRNA enhancing effect: Renilla luciferase activity, psi-R21 construct (miR-21-5p biogenesis; 50 μM, 6 hours): decrease in Renilla luciferase activity
- Renilla luciferase activity, control construct psi-CTRL (miR-21-5p biogenesis; construct lacking the miR-21-5p binding site): no significant variation
- binding affinity for TRBP, fold stronger than enoxacin (TRBP): approximately 40 fold
- RNAi enhancing effect (GAPDH mRNA decrease) [1]: modest but significant RNAi enhancing effect
